Laboratory results reported in patent US9080144B2, “Compositions and methods for promoting liposomal and cellular adhesion” (priority 2012, dated 2015).
“Also recorded” adds a separate entry of the source.

Experiments:
[1] = test system: fibroblasts (fbs); experiment: Fluorescence labeling optimization of DOTAP concentration for liposome-cell fusion; format: cell-based; conditions: keto-LUVs with 0.5-5% DOTAP, 5% ketone; fbs 4 h; rhod-oxyamine 0.7 mM 2 h
Protocol: Cell-surface labeling. In an embodiment of the present application, oxime chemistry is used to tailor and fluorescently label cell surfaces via a novel liposome fusion strategy. As mentioned, cationic lipid, DOTAP, was incorporated within keto- and oxyamine-LUVs to initiate electrostatic destabilization and subsequent fusion to the cell membrane. As such, the minimum DOTAP concentration required to facilitate liposome-cell fusion was determined to be […] through fluorescence labeling optimization. Keto-LUVs were generated using DOTAP and POPC concentrations that ranged from 0.5% to 5% and 90% to 94.5%, respectively, while maintaining a 5-% ketone concentration. These liposomes were incubated with fibroblasts (fbs) for 4 h, conjugated with an oxyamine-tethered rhodamine (rhod-oxyamine, 8) (0.7 mM, 2 h), and the cell fluorescence intensities were then compared. […] The liposomes for liposome-cell fusion events were approximately ˜60 nm in diameter, similar to those used for the liposome-liposome fusion characterization.

[2] = test system: fibroblasts (fbs); experiment: Cell-surface engineering: fluorescent labeling of fbs by liposome fusion and oxime conjugation; format: cell-based, mouse; conditions: liposome fusion 2 h plus complementary oxime dye
Protocol: Two cell-surface engineering methods were employed to fluorescently label fbs. In this first method, a solution of oxyamine vc-LUVs (6, 3 mM) was incubated with a ketone-functionalized fluorescein (7, 0.15 mM, 1 eq, 2 h), forming fluorescently labeled liposomes. The liposomes were then added to fbs in culture for 2 h. After fusion, the cells were washed with PBS (3×2 mL), trypsinized (1 mL, 5 min, 37° C., 5% CO2), diluted with CBS-containing media (˜10^2/mL), and seeded to a glass substrate (1×1 cm^2, 2 h). The cells were then imaged under a fluorescence microscope with an exposure time of 1/1200 s. In the second method, a solution of keto-LUVs (5, 200 μL, 0.6 mM) was added to fbs in culture for 2 h, resulting in membrane fusion and subsequent display of ketones from the cell surface (9). Rhod-oxyamine (8, 100 μL, 0.7 mM in H2O) was then added the cells for 2 h. After oxime formation, the fbs were washed with PBS (3×2 mL), trypsinized (1 mL, 5 min, 37° C., 5% CO2), diluted with CBS-containing media (˜10^2/mL), and seeded to a glass substrate (1×1 cm^2, 2 h). The cells were then imaged under a fluorescence microscope with an exposure time of 1/1200 s (see FIG. 3).

Row | SMILES | minimum DOTAP concentration required to facilitate liposome-cell fusion [1] | fluorescent labeling of fbs (microscopy) [2]
1 | CCCCCCCC/C=C\CCCCCCCC(=O)OCC(C[N+](C)(C)C)OC(=O)CCCCCCC/C=C\CCCCCCCC (centres unmarked) [DOTAP, 1,2-dioleoyl-3-trimethylammonium-propane] | 2% | –
2 | CCN(CC)c1ccc2c(-c3ccc(S(=O)(=O)NCCCCNC(=O)CON)cc3S(=O)(=O)[O-])c3ccc(=[N+](CC)CC)cc-3oc2c1 [compound 8, 5-(N-(4-(2-(aminooxy)acetamido)butyl)sulfamoyl)-2-(6-(diethylamino)-3-(diethyliminio)-3H-xanthen-9-yl)benzenesulfonate] | – | fluorescence labeling of cells; also recorded: red fluorescent labeling of the cells
